The Deep4Chem optical property database

Experiment: photoluminescence quantum yield (fraction); solvent given as SMILES

Row | SMILES | photoluminescence quantum yield (in C1CCOC1) | photoluminescence quantum yield (in CC#N) | photoluminescence quantum yield (in CO) | photoluminescence quantum yield (in Cc1ccccc1) | photoluminescence quantum yield (in ClCCl) | further results
1 | Cc1ccc(S(=O)(=O)/N=c2\oc3cccc4c5c(-c6ccccc6)oc6cccc(c(c2-c2ccccc2)c34)c65)cc1 |  |  |  |  |  | photoluminescence quantum yield (in ClC(Cl)Cl): 0.64
2 | CCc1c(C)[nH]c(C2=[N+]3C(=Cc4c(C)c(CC)c(C)n4[B-]3(F)F)c3ccccc32)c1C | 0.09 | 0.03 | 0.04 | 0.75 | 0.73 | photoluminescence quantum yield (in CCCCCC): 0.86
3 | CCOC(=O)/C(C#N)=C\c1ccc2c(c1)c1ccccc1n2-c1ccc(OC)cc1 | 0.13 | 0.04 | 0.02 | 0.14 |  | photoluminescence quantum yield (in CC(C)=O): 0.05; photoluminescence quantum yield (in CCOC(C)=O): 0.08; photoluminescence quantum yield (in CS(C)=O): 0.03; photoluminescence quantum yield (in ClC(Cl)Cl): 0.09
4 | CN(C)c1ccc2ccc3oc(=O)c(-c4ccccc4)nc3c2c1 |  |  |  |  |  | photoluminescence quantum yield (in c1ccccc1): 0.152
5 | c1ccc(N(c2ccccc2)c2ccc(-c3ncc(-c4ccc(-c5ccc(-c6cnc(-c7ccc(N(c8ccccc8)c8ccccc8)cc7)s6)s5)s4)s3)cc2)cc1 |  |  | 0.16 |  |  | 
6 | CCCCC1(CCCC)c2cc(C#Cc3ccc(C=C4c5ccccc5CCc5ccccc54)cc3)ccc2-c2ccc(C#Cc3ccc(C=C4c5ccccc5CCc5ccccc54)cc3)cc21 | 0.027 |  |  |  |  | 
7 | CCOC(=O)/C(C#N)=C/c1cc2c3ccccc3n(C)c2cc1OC | 0.001 | 0.003 | 0.003 | 0.003 | 0.003 | photoluminescence quantum yield (in CCOC(C)=O): 0.004; photoluminescence quantum yield (in CN(C)C=O): 0.005; photoluminescence quantum yield (in CS(C)=O): 0.01; photoluminescence quantum yield (in ClC(Cl)Cl): 0.004
8 | C(=C\c1nc2ccccc2s1)/c1ccc(-c2nc3c4cccnc4c4ncccc4c3[nH]2)cc1 | 0.33 | 0.17 | 0.11 |  | 0.25 | 
9 | Cc1c(C2=[N+]3C(=Cc4c(C)c5ccccc5n4[B-]3(F)F)c3ccccc32)[nH]c2ccccc12 | 0.04 | 0.04 | 0.03 | 0.14 | 0.08 | photoluminescence quantum yield (in CCCCCC): 0.14
10 | CCOC(=O)/N=c1/oc2cc(OC)cc(OC)c2cc1C#N |  |  |  |  | 0.059 | 
11 | O=C(O)c1cc2c(ccc3ccccc32)oc1=O |  | 0.54 | 0.1 |  |  | photoluminescence quantum yield (in C1COCCO1): 0.53; photoluminescence quantum yield (in CCCCO): 0.27; photoluminescence quantum yield (in CCO): 0.07; photoluminescence quantum yield (in O): 0.41
12 | CC1(C)C(/C=C/c2cc3ccc(O)cc3oc2=O)=[N+](CCCS(=O)(=O)[O-])c2ccc3c(S(=O)(=O)O)cc(S(=O)(=O)O)cc3c21 |  |  |  |  |  | photoluminescence quantum yield (in CCO): 0.014; photoluminescence quantum yield (in CS(C)=O): 0.025; photoluminescence quantum yield (in O): 0.027
13 | CCCCC(CC)CN1C(=O)c2cc(Oc3ccc(C(C)(C)C)cc3)c3c4c(Cl)cc5c6c(cc(Cl)c(c7c(Oc8ccc(C(C)(C)C)cc8)cc(c2c37)C1=O)c64)C(=O)N(c1c(C(C)C)cccc1C(C)C)C5=O (stereo not drawn) |  |  |  | 0.72 |  | 
